Assay results as given in PMC11995724, “Antibiotic target discovery by integrated phenotypic and activity-based profiling of electrophilic fragments” (Cell chemical biology, 2025).
Where a name gives a salt, the structure may show the parent alone.

experiment: in vitro; conditions: human, hek293t cells

Row | SMILES | viability at 48 h, 25 µM [%]
1 | Cc1cc(C(=O)CCl)c(C)n1C1CCS(=O)(=O)C1 (stereo not shown) [10-B12, 3-[3-(2-chloroacetyl)-2,5-dimethyl-1H-pyrrol-1-yl]-1lambda6-thiolane-1,1-dione] | 3.75
2 | COCCNC(=O)C(C#N)=Cc1cccc(O)c1 [9-H08, 2-cyano-3-(3-hydroxyphenyl)-N-(2-methoxyethyl)prop-2-enamide] | 121
3 | N#CC(=Cc1sc2ccccc2c1Cl)C(=O)NC1CC1 [9-C18, 3-(3-chloro-1-benzothiophen-2-yl)-2-cyano-N-cyclopropylprop-2-enamide] | 86.4
4 | C=CC(=O)Nc1ccc(C(=O)NC2CCN(C(C)C)C2=O)cc1 (stereo not shown) [3-C10, N-[2-oxo-1-(propan-2-yl)pyrrolidin-3-yl]-4-(prop-2-enamido)benzamide] | 60.6
5 | CC(Cl)C(=O)Nc1ccccc1C(=O)c1ccccc1 (stereo not shown) [6-G10, N-(2-benzoylphenyl)-2-chloropropanamide] | 102
6 | Cc1cc(C)c(-c2csc(NC(=O)CCl)n2)cc1C [4-G17, 2-chloro-N-[4-(2,4,5-trimethylphenyl)-1,3-thiazol-2-yl]acetamide] | 0.339
7 | Cc1cc(C=C(C#N)C(=O)Nc2ccccn2)c(C)n1CC(C)C [9-J21, 2-cyano-3-[2,5-dimethyl-1-(2-methylpropyl)-1H-pyrrol-3-yl]-N-(pyridin-2-yl)prop-2-enamide] | 87.2
8 | CC(C)NC(=O)C(C#N)=Cc1ccc(F)cc1 [9-I09, 2-cyano-3-(4-fluorophenyl)-N-(propan-2-yl)prop-2-enamide] | 119
9 | CC1CC(NC(=O)C(C)Cl)=NO1 (stereo not shown) [5-J21, 2-chloro-N-(5-methyl-4,5-dihydro-1,2-oxazol-3-yl)propanamide] | 97.1
10 | Cc1cc(C)cc(N(CCC#N)C(=O)CCl)c1 [5-P18, 2-chloro-N-(2-cyanoethyl)-N-(3,5-dimethylphenyl)acetamide] | 0.915
11 | Cc1cc(C)c(NC(=O)C(C)Cl)c(Cl)c1 (stereo not shown) [6-E10, 2-chloro-N-(2-chloro-4,6-dimethylphenyl)propanamide] | 109
12 | C=CC(=O)N1CCC(c2cnn(C)c2)CC1 [2-I10, 1-[4-(1-methyl-1H-pyrazol-4-yl)piperidin-1-yl]prop-2-en-1-one] | 83.2
13 | C=CC(=O)N(C)CC(=O)NC1CCC(N2CCCCC2=O)CC1 (stereo not shown) [3-A06, N-methyl-N-({[4-(2-oxopiperidin-1-yl)cyclohexyl]carbamoyl}methyl)prop-2-enamide] | 62.1
14 | CC(C)NC(=O)C(C#N)=Cc1cccc(Cl)c1 [9-A13, 3-(3-chlorophenyl)-2-cyano-N-(propan-2-yl)prop-2-enamide] | 99.7
15 | N#CC(=Cc1ccc(-c2ccccc2F)o1)C(=O)Nc1nccs1 [9-A08, 2-cyano-3-[5-(2-fluorophenyl)furan-2-yl]-N-(1,3-thiazol-2-yl)prop-2-enamide] | 110
16 | CC(Cl)C(=O)N1CCC(Oc2ccc(C3CC3)cn2)C1 (stereo not shown) [7-A18, 2-chloro-1-{3-[(5-cyclopropylpyridin-2-yl)oxy]pyrrolidin-1-yl}propan-1-one] | 60.4
17 | C=CC(=O)Nc1cc(Cl)cc(C)c1OC [1-E16, N-(5-chloro-2-methoxy-3-methylphenyl)prop-2-enamide] | 45.9
18 | CCn1c2ccccc2c2cc(NC(=O)CCl)ccc21 [4-D06, 2-chloro-N-(9-ethyl-9H-carbazol-3-yl)acetamide] | 9.48
19 | C=CC(=O)NCCCn1cnc2ccccc21 [2-P11, N-[3-(1H-1,3-benzodiazol-1-yl)propyl]prop-2-enamide] | 62
20 | N#CC(=Cc1ccc(N2CCOCC2)cc1)C(=O)Nc1nccs1 [9-F17, 2-cyano-3-[4-(morpholin-4-yl)phenyl]-N-(1,3-thiazol-2-yl)prop-2-enamide] | 95.6
21 | N#CC(=Cc1ccc([N+](=O)[O-])c(Cl)c1)C(=O)NC1CCCCC1 [8-B08, 3-(3-chloro-4-nitrophenyl)-2-cyano-N-cyclohexylprop-2-enamide] | 0.92
22 | O=C1C=CC(=O)N1CCCCO [10-K07, 1-(4-hydroxybutyl)-2,5-dihydro-1H-pyrrole-2,5-dione] | 39.9
23 | CCc1ccc(NC(=O)C(C)Cl)cc1 (stereo not shown) [4-L15, 2-chloro-N-(4-ethylphenyl)propanamide] | 76.6
24 | COc1ccc(C=C(C#N)C(=O)Nc2ccccc2OC)cc1O [8-J19, 2-cyano-3-(3-hydroxy-4-methoxyphenyl)-N-(2-methoxyphenyl)prop-2-enamide] | 107
25 | O=C(CCl)NC1CC(=O)N(c2cccc(C(F)(F)F)c2)C1 (stereo not shown) [5-E09, 2-chloro-N-{5-oxo-1-[3-(trifluoromethyl)phenyl]pyrrolidin-3-yl}acetamide] | 0.777
26 | C=CC(=O)NCC(=O)N1CCCO1 [1-H05, N-[2-(1,2-oxazolidin-2-yl)-2-oxoethyl]prop-2-enamide] | 98.5

Row | SMILES | viability at 48 h, 25 µM [%]
27 | C=CC(=O)N(Cc1c(C)cccc1OC)C1CCCCNC1=O (stereo not shown) [1-F09, N-[(2-methoxy-6-methylphenyl)methyl]-N-(2-oxoazepan-3-yl)prop-2-enamide] | 85.8
28 | C=CC(=O)N1CCC(C(=O)NCc2nccn2C)(c2ccccc2)CC1 [3-I10, N-[(1-methyl-1H-imidazol-2-yl)methyl]-4-phenyl-1-(prop-2-enoyl)piperidine-4-carboxamide] | 92.9
29 | CC(Cl)C(=O)NCCN(C)S(=O)(=O)c1cccs1 (stereo not shown) [7-F05, 2-chloro-N-[2-(N-methylthiophene-2-sulfonamido)ethyl]propanamide] | 97.9
30 | CC(Cl)C(=O)N[C@H]1C[C@H](C)S(=O)(=O)c2sccc21 (stereo partly drawn) [6-B22, 2-chloro-N-[(2S,4S)-2-methyl-1,1-dioxo-2H,3H,4H-1lambda6-thieno[2,3-b]thiopyran-4-yl]propanamide] | 92.4
31 | C=CC(=O)N(C)C1CCN(c2cnccn2)CC1 [1-B12, N-methyl-N-[1-(pyrazin-2-yl)piperidin-4-yl]prop-2-enamide] | 70.1
32 | CC(Cl)C(=O)NCc1nn(-c2ccccc2)c2c1CCC2 (stereo not shown) [7-P05, 2-chloro-N-({1-phenyl-1H,4H,5H,6H-cyclopenta[c]pyrazol-3-yl}methyl)propanamide] | 116
33 | O=C(CCl)NC1Cc2ccccc2N(C(=O)C(F)(F)F)C1 (stereo not shown) [7-L16, 2-chloro-N-[1-(2,2,2-trifluoroacetyl)-1,2,3,4-tetrahydroquinolin-3-yl]acetamide] | 0.649
34 | CC(Cl)C(=O)N1CCCN(c2ccc(-c3ccccc3)nn2)CC1 (stereo not shown) [7-L15, 2-chloro-1-[4-(6-phenylpyridazin-3-yl)-1,4-diazepan-1-yl]propan-1-one] | 76.7
35 | C=CC(=O)NCCC(=O)N1CCOC(c2nc(C)cs2)C1 (stereo not shown) [3-K04, N-{3-[2-(4-methyl-1,3-thiazol-2-yl)morpholin-4-yl]-3-oxopropyl}prop-2-enamide] | 89.7
36 | CC(CC#N)Sc1ccccc1NC(=O)CCl (stereo not shown) [5-F14, 2-chloro-N-{2-[(1-cyanopropan-2-yl)sulfanyl]phenyl}acetamide] | 1.02
37 | CC(Cl)C(=O)N1CCC(c2nccn2C)C1 (stereo not shown) [6-F15, 2-chloro-1-[3-(1-methyl-1H-imidazol-2-yl)pyrrolidin-1-yl]propan-1-one] | 98.6
38 | CCOc1ccccc1C=C(C#N)C(=O)Nc1ccc(Cl)cc1 [8-B09, N-(4-chlorophenyl)-2-cyano-3-(2-ethoxyphenyl)prop-2-enamide] | 82.9
39 | COc1cccc(NC(=O)C(C#N)=Cc2ccc(C#N)cc2)c1 [8-G18, 2-cyano-3-(4-cyanophenyl)-N-(3-methoxyphenyl)prop-2-enamide] | 60.2
40 | O=C(CCl)Nc1ccc2oc3ccccc3c2c1 [6-N06, 2-chloro-N-{8-oxatricyclo[7.4.0.0,2,7]trideca-1(9),2(7),3,5,10,12-hexaen-4-yl}acetamide] | 2.09
41 | COC(=O)c1c(C(=O)CCl)c(C)n(C2CC2)c1C [10-H03, methyl 4-(2-chloroacetyl)-1-cyclopropyl-2,5-dimethyl-1H-pyrrole-3-carboxylate] | 93.4
42 | CC(=O)Nc1ccc(C=C(C#N)C(=O)Nc2cccc(C)c2C)cc1 [9-D19, 2-cyano-N-(2,3-dimethylphenyl)-3-(4-acetamidophenyl)prop-2-enamide] | 107
43 | N#CC(=Cc1cccnc1)C(=O)Nc1cccc2ccccc12 [8-L17, 2-cyano-N-(naphthalen-1-yl)-3-(pyridin-3-yl)prop-2-enamide] | 110
44 | CC(Cl)C(=O)N1CCN(C(=O)c2cccc(OC(F)F)c2)CC1 (stereo not shown) [5-F17, 2-chloro-1-{4-[3-(difluoromethoxy)benzoyl]piperazin-1-yl}propan-1-one] | 106
45 | CC(NC(=O)C(C#N)=Cc1ccco1)c1cccc(-n2cccn2)c1 (stereo not shown) [9-J04, 2-cyano-3-(furan-2-yl)-N-{1-[3-(1H-pyrazol-1-yl)phenyl]ethyl}prop-2-enamide] | 95.9
46 | COCC(NC(=O)C(C)Cl)c1ccccn1 (stereo not shown) [6-B13, 2-chloro-N-[2-methoxy-1-(pyridin-2-yl)ethyl]propanamide] | 106
47 | N#CC(=Cc1ccc(SC(F)(F)F)cc1)C(=O)NC1CC1 [9-C14, 2-cyano-N-cyclopropyl-3-{4-[(trifluoromethyl)sulfanyl]phenyl}prop-2-enamide] | 55.5
48 | O=C(CCl)Nc1cccnn1 [6-O17, 2-chloro-N-(pyridazin-3-yl)acetamide hydrochloride] | 118
49 | CC(Cl)C(=O)N1CC(S(=O)(=O)Nc2ccccc2)C1 (stereo not shown) [7-G05, 1-(2-chloropropanoyl)-N-phenylazetidine-3-sulfonamide] | 102
50 | CN(C(=O)CCl)C(c1ccc(Cl)cc1)C(F)(F)F (stereo not shown) [7-J16, 2-chloro-N-[1-(4-chlorophenyl)-2,2,2-trifluoroethyl]-N-methylacetamide] | 0.718
51 | O=C(NCc1ccco1)C1CCCN1C(=O)CCl (stereo not shown) [5-N05, 1-(2-chloroacetyl)-N-[(furan-2-yl)methyl]pyrrolidine-2-carboxamide] | 1.39
52 | C=CC(=O)N1CCC(C(=O)Nc2[nH]nc(C(F)(F)F)c2C)CC1 [1-O04, N-[4-methyl-3-(trifluoromethyl)-1H-pyrazol-5-yl]-1-(prop-2-enoyl)piperidine-4-carboxamide] | 113
